Laboratory results taken from ChEMBL document CHEMBL1151602, “Synthesis and bioactivity of new antineoplastic terpenylquinones” (Bioorg Med Chem Lett, 1996).

Tests used:
Assay type in all cases: functional, cell-based
[1] = system: P388; assay: Cytotoxicity was measured against neoplastic cultured P-388 cells of murine leukemia.; conditions: Mus musculus
[2] = system: A549; assay: Cytotoxicity was measured against neoplastic cultured A-549 cells of human lung carcinoma.
[3] = system: HT-29; assay: Cytotoxicity was measured against neoplastic cultured HT-29 cells of human colon carcinoma.
[4] = system: SK-MEL-28; assay: Cytotoxicity was measured against neoplastic cultured MEL-28 cells of malign human melanoma.

Compound	IC50 [1] [µM]	IC50 [2] [µM]	IC50 [3] [µM]	IC50 [4] [µM]
CC(C)=CCCc1ccc2c(c1)C(=O)C(C)=CC2=O	3.9	3.9	19.6	9.8
CC(C)=CCCC1=CCC2C(=O)c3ccccc3C(=O)C2C1 (stereo not given)	8.5	8.5	> 34	> 34
O=C1C=CC(=O)C=C1 [BENZOQUINONE]	11.1	46.2	46.2	46.2
CC(C)=CCCC1=CCc2c(O)cc(C)c(O)c2C1	3.8	3.8	19.4	19.4
CC(C)=CCCC1=CCc2c(O)ccc(O)c2C1	2.1	4.9	4.9	4.9
CC1=CCC[C@H]2[C@](C)(Cc3cc(O)ccc3O)[C@@H](C)CC[C@]12C [AVAROL]	3.1	6	6	6
CC(C)=CCCc1ccc2c(c1)C(=O)C=CC2=O	0.4	1	1	0.4
CC(=O)Oc1ccc(OC(C)=O)c2c1CC=C(CCC=C(C)C)C2	1.5	3.6	3.6	3.6
O=C1C=CC(=O)c2ccccc21 [NAPHTHOQUINONE]	> 63.2	> 63.2	> 63.2	> 63.2
CC1=CCC[C@H]2[C@](C)(CC3=CC(=O)C=CC3=O)[C@@H](C)CC[C@]12C [AVARONE]	3.1	6	6	6
CC(C)=CCCC1=CCC2=C(C1)C(=O)C(C)=CC2=O	3.9	3.9	19.5	9.8
CC(C)=CCCC1=CCC2=C(C1)C(=O)C=CC2=O	1	2.1	2.1	2.1
CC(=O)Oc1cc(C)c(OC(C)=O)c2cc(CCC=C(C)C)ccc12	2.9	1.5	7.3	3.5
CC(=O)Oc1cc(C)c(OC(C)=O)c2c1CC=C(CCC=C(C)C)C2	2.9	2.9	14.6	14.6
CC(C)=CCCC1=CCC2=C(C1)C(=O)c1ccccc1C2=O	17	17	> 34	> 34
